Measured values: the supplement of paper PMC8967900

Tests used:
Assay in all cases: selective drug sensitivity score (sDSS, relative to normal bone marrow) (sDSS (score)); higher = more potent and effective on the cell line relative to normal bone marrow cells
Conditions in all cases: 72 h
SEM cells = system: SEM cells
COG-LL-355h = system: COG-LL-355h
NALM-6 = system: NALM-6
LC4-1 = system: LC4-1
KASUMI-2 = system: KASUMI-2
ALL-SIL = system: ALL-SIL
RCH-ACV = system: RCH-ACV
CCRF-CEM = system: CCRF-CEM
PF-382 = system: PF-382
NALL-1 = system: NALL-1
REH = system: REH
COG-LL-332h = system: COG-LL-332h
NALM-16 = system: NALM-16
MHH-CALL-3 = system: MHH-CALL-3
SUP-B15 = system: SUP-B15
HPB-ALL = system: HPB-ALL
RPMI-8402 = system: RPMI-8402
P30-OHKUBO = system: P30-OHKUBO
DND-41 = system: DND-41
KASUMI-10 = system: KASUMI-10
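Note: ALL cell lines in 384-well plates, five doses spanning 10,000-fold, each plate scaled between vehicle and 100 µmol/L benzalkonium chloride controls, sDSS an adapted area-under-curve metric.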

Compound | selective drug sensitivity score (SEM cells) | selective drug sensitivity score (COG-LL-355h) | selective drug sensitivity score (NALM-6) | selective drug sensitivity score (LC4-1) | selective drug sensitivity score (KASUMI-2) | selective drug sensitivity score (ALL-SIL) | selective drug sensitivity score (RCH-ACV) | selective drug sensitivity score (CCRF-CEM) | selective drug sensitivity score (PF-382) | selective drug sensitivity score (NALL-1) | selective drug sensitivity score (REH) | selective drug sensitivity score (COG-LL-332h) | selective drug sensitivity score (NALM-16) | selective drug sensitivity score (MHH-CALL-3) | selective drug sensitivity score (SUP-B15) | selective drug sensitivity score (HPB-ALL) | selective drug sensitivity score (RPMI-8402) | selective drug sensitivity score (P30-OHKUBO) | selective drug sensitivity score (DND-41) | selective drug sensitivity score (KASUMI-10)
CC(C)N(CCCNC(=O)Nc1ccc(C(C)(C)C)cc1)C[C@H]1O[C@@H](n2cc(Br)c3c(N)ncnc32)[C@H](O)[C@@H]1O [SGC0946] (top concentration 10000 nM) | -0.72 | 1.88 | -0.82 | -1.02 | -1.12 | -0.92 | -0.82 | 0.88 | 0.28 | 5.58 | 5.18 | 0.18 | -0.62 | -1.12 | -0.62 | 1.18 | 1.78 | 2.58 | -1.02 | -0.12
CCCCCCCCc1ccc(CCC(N)(CO)CO)cc1 [Fingolimod] (top concentration 10000 nM) | 0.48 | 6.88 | 1.58 | 0.88 | -0.82 | 1.98 | 0.98 | 0.98 | -0.62 | 6.18 | -1.52 | 1.38 | -0.02 | -3.42 | 7.48 | 1.68 | -1.12 | 1.38 | 1.28 | -0.72
C=CC(=O)Nc1cccc(Oc2nc(Nc3ccc(N4CCN(C)CC4)cc3)nc3ccsc23)c1 [Olmutinib] (top concentration 1000 nM) | -0.02 | 1.78 | -0.02 | -0.02 | -0.02 | -0.02 | 1.58 | -0.02 | -0.02 | 5.88 | 2.28 | -0.02 | -0.02 | -0.02 | -0.02 | -0.02 | -0.02 | 1.38 | -0.02 | -0.02
CCCCCCCCCCCCCCCCCCOP(=O)([O-])OC1CC[N+](C)(C)CC1 [Perifosine] (top concentration 2500 nM) | -0.36 | 0.64 | -0.36 | 4.04 | 8.74 | -0.36 | 2.34 | -0.16 | -0.36 | -0.36 | -0.36 | -0.36 | -0.36 | -0.36 | 1.04 | 3.64 | -0.36 | -0.36 | -0.36 | -0.36
Cc1nc2cccc(N)c2c(=O)n1C1CCC(=O)NC1=O (stereo not given) [Avadomide (CC122)] (top concentration 10000 nM) | 0.9 | 2.6 | 0 | 3.5 | 0 | 0 | 10.5 | 0.9 | 0 | 0 | 3.6 | 0 | 0 | 0 | 0 | 0 | 0 | 5.9 | 0 | 2.3
C=CC(=O)Nc1cc(Nc2nccc(-c3cn(C)c4ccccc34)n2)c(OC)cc1N(C)CCN(C)C [Osimertinib] (top concentration 2500 nM) | 0.58 | 2.98 | -1.62 | -0.42 | -3.52 | -2.52 | -1.02 | -0.52 | -2.12 | 0.58 | 0.88 | -0.32 | -4.42 | -4.62 | -2.02 | -0.92 | -0.42 | 1.08 | -0.82 | 2.18
O=C(NCc1ccncc1)C12CC3CC(C1)CC(c1ccc(Cl)cc1)(C3)C2 (top concentration 50000 nM) | 3.88 | 0.48 | -0.22 | 0.18 | -0.42 | 2.08 | 4.08 | 2.28 | 0.48 | 3.58 | 5.18 | 2.08 | -0.72 | 2.78 | 0.18 | 1.88 | 2.68 | 3.18 | 4.08 | 0.98
O=C(O)CCCCC(CCSCc1ccccc1)SCc1ccccc1 (stereo not given) [Devimistat (CPI-613)] (top concentration 10000 nM) | 0.6 | 2.4 | 0 | 2.1 | 0 | 0 | 0 | 0 | 0 | 0.1 | 0 | 0 | 0.4 | 1 | 0 | 0 | 0 | 0 | 0.6 | 0
CCCCOc1nc(N)c2c(n1)N(Cc1cccc(CN3CCCC3)c1)CC(=O)N2 [Vesatolimod] (top concentration 10000 nM) | -3.52 | 0.28 | -3.52 | -3.52 | -3.52 | -3.52 | -3.52 | -3.52 | -3.52 | -3.52 | -3.52 | -3.52 | -3.52 | -3.52 | -3.52 | -3.52 | -3.52 | -3.52 | -2.12 | -3.52
CC(C)C[C@H](NC(=O)[C@@H](COC(C)(C)C)NC(=O)[C@H](Cc1ccc(O)cc1)NC(=O)[C@H](CO)NC(=O)[C@H](Cc1c[nH]c2ccccc12)NC(=O)[C@H](Cc1cnc[nH]1)NC(=O)[C@@H]1CCC(=O)N1)C(=O)N[C@@H](CCCNC(=N)N)C(=O)N1CCC[C@H]1C(=O)NNC(N)=O [Goserelin] (top concentration 10000 nM) | -0.06 | -0.06 | -0.06 | -0.06 | -0.06 | -0.06 | -0.06 | -0.06 | -0.06 | -0.06 | 0.14 | -0.06 | -0.06 | -0.06 | -0.06 | -0.06 | -0.06 | -0.06 | -0.06 | -0.06
CC1(C)CCC(CN2CCN(c3ccc(C(=O)NS(=O)(=O)c4ccc(NCC5CCOCC5)c([N+](=O)[O-])c4)c(Oc4cnc5[nH]ccc5c4)c3)CC2)=C(c2ccc(Cl)cc2)C1 [Venetoclax] (top concentration 1000 nM) | 21.1 | 31.2 | 4.4 | 31.8 | 22.9 | 16.5 | -1.3 | -1.8 | -4.1 | 20.5 | 0.9 | -3.3 | 22.6 | 31.5 | 34.5 | -0.9 | -4.4 | 21 | 2.1 | 29.5
CC[C@@H]1C(=O)OC[C@@H]1Cc1cncn1C [Pilocarpine] (top concentration 40000 nM) | -1.56 | -1.56 | -1.56 | -1.56 | -1.56 | -0.76 | -1.56 | -1.56 | -1.56 | 7.44 | -1.56 | -1.56 | -1.56 | -1.56 | -1.56 | 7.34 | -1.56 | -1.56 | 4.34 | -1.56
O=C(O)CC1CC(c2ccccc2)=NO1 (stereo not given) [VGX-1027] (top concentration 10000 nM) | -0.04 | -0.04 | -0.04 | -0.04 | -0.04 | -0.04 | -0.04 | -0.04 | -0.04 | -0.04 | -0.04 | -0.04 | -0.04 | -0.04 | -0.04 | -0.04 | -0.04 | -0.04 | -0.04 | -0.04
CCOc1ccn(-c2ccc(F)cc2)c(=O)c1C(=O)Nc1ccc(Oc2ccnc(N)c2Cl)c(F)c1 (top concentration 2500 nM) | 4.9 | 0 | 2 | 0 | 0 | 8 | 1 | 0.6 | 0 | 0 | 1.3 | 3.2 | 1 | 0 | 3.5 | 0 | 0.4 | 1.5 | 0 | 2.6
O=C1CCC(N2C(=O)c3ccccc3C2=O)C(=O)N1 (stereo not given) [Thalidomide] (top concentration 10000 nM) | -0.14 | 0.16 | -0.14 | -0.14 | -0.14 | -0.14 | -0.14 | -0.14 | -0.14 | -0.14 | -0.04 | -0.14 | -0.14 | -0.14 | -0.14 | -0.14 | -0.14 | -0.14 | -0.14 | -0.14
CCS(=O)(=O)N1CC(CC#N)(n2cc(-c3ncnc4[nH]ccc34)cn2)C1 [Baricitinib] (top concentration 2500 nM) | -1.94 | -1.94 | -1.94 | -1.94 | -1.94 | 4.66 | -1.94 | -1.94 | -1.94 | -1.94 | -1.94 | 0.16 | -1.94 | -1.94 | -1.94 | -1.94 | -1.94 | -1.94 | 3.66 | -1.94
Cc1cc(Nc2nc(N[C@@H](C)c3ncc(F)cn3)ncc2Cl)[nH]n1 [AZD1480] (top concentration 1000 nM) | -1.98 | 0.42 | -3.58 | -4.08 | -4.28 | -0.28 | -2.18 | -3.98 | -4.08 | -1.48 | -4.08 | -3.08 | -4.28 | -1.28 | 0.02 | -3.48 | -3.18 | -4.18 | 0.72 | -0.48
